Results on 11 compounds are retold here after ChEMBL document CHEMBL1201862, “PubChem BioAssay data set” (2004).

The structures appear in SMILES notation.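 Compound exposure: 48 hours, 5 concentrations, 96-well plates. Here, GI50 denotes the concentration required for 50% inhibition of growth.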 Active and inactive are the calls of the source. Rule as the data show it: active = GI50 up to about 1.1 µM and inactive = higher.

Among the test systems are 786-0; A549; CCRF-CEM; COLO 205; EKVX; HCC 2998; IGROV-1; KM12; MOLT-4; NCI-H522; OVCAR-3; OVCAR-4; RXF 393; SK-MEL-28; SR; TK-10; U-251; UO-31.
What all share (experiment): NCI anticancer screen, dose series, 48 h

On to `CC1(C)CCOC(Sc2ccccc2)C1` (stereo not given), for which the GI50 is > 100 µM (inactive) in the experiment on 786-0; 24.3 µM (inactive) in the experiment on A549; 32.4 µM (inactive) in the experiment on CCRF-CEM; 52.2 µM (inactive) in the experiment on COLO 205; > 100 µM (inactive) with EKVX; > 100 µM (inactive) with HCC 2998. In addition, the GI50 in the experiment with IGROV-1 was > 100 µM (inactive); in the experiment with KM12 it was 76.6 µM (inactive); in the experiment on MOLT-4, 23.2 µM (inactive); with NCI-H522 it was 18.8 µM (inactive); in the experiment with OVCAR-3, 87.1 µM (inactive); with OVCAR-4, 52.8 µM (inactive). In addition, the GI50 in the experiment on RXF 393 is 32.1 µM (inactive); in the experiment on SK-MEL-28 it was > 100 µM (inactive); in the experiment with SR, 39.6 µM (inactive); with TK-10, > 100 µM (inactive); in the experiment with U-251 it was 18.7 µM (inactive); in the experiment with UO-31, 80.9 µM (inactive).
For `O=C(CO[N+](=O)[O-])OC/C=C/c1ccccc1`, the GI50 in the experiment with 786-0, in the experiment with A549, with CCRF-CEM, with COLO 205, in the experiment on EKVX and in the experiment on HCC 2998 was > 100 µM (inactive) each time. The GI50 in the experiment with IGROV-1, in the experiment on KM12, with MOLT-4, in the experiment on NCI-H522, in the experiment on OVCAR-3 and with RXF 393 was > 100 µM (inactive) in each case. For the same compound, the GI50 in the experiment with SR, in the experiment with TK-10, with U-251 and with UO-31 was > 100 µM (inactive) in each case.
Turning to `N#CC(C#N)=c1[nH]c2cccc3c2-c2c(cccc2c3=C(C#N)C#N)[nH]1`, the GI50 in the experiment on 786-0 is > 100 µM (inactive); in the experiment on A549, > 100 µM (inactive); in the experiment with CCRF-CEM, 45.1 µM (inactive); in the experiment with COLO 205, > 100 µM (inactive); with EKVX, > 100 µM (inactive); with HCC 2998, > 100 µM (inactive). The GI50 in the experiment on IGROV-1, in the experiment with KM12, in the experiment on MOLT-4, in the experiment with NCI-H522, in the experiment on OVCAR-3 and with OVCAR-4 was > 100 µM (inactive) each time. For the same compound, the GI50 with RXF 393 is 79.6 µM (inactive); in the experiment with SR, > 100 µM (inactive); in the experiment on TK-10, > 100 µM (inactive); in the experiment with U-251, > 100 µM (inactive); in the experiment on UO-31 it was > 100 µM (inactive).
For the compound `COC(CN1C(=O)c2cccc3cccc(c23)C1=O)OC`, the GI50 is > 100 µM (inactive) in the experiment with 786-0; 56.9 µM (inactive) in the experiment with A549; 73.3 µM (inactive) in the experiment on CCRF-CEM; > 100 µM (inactive) in the experiment with COLO 205; 49 µM (inactive) in the experiment on EKVX; > 100 µM (inactive) in the experiment on HCC 2998. The GI50 in the experiment on IGROV-1 is > 100 µM (inactive); in the experiment on KM12 it was 80.4 µM (inactive); in the experiment with MOLT-4, 32.3 µM (inactive); with OVCAR-3, > 100 µM (inactive); with OVCAR-4 it was > 100 µM (inactive); in the experiment with RXF 393, > 100 µM (inactive). For the same compound, the GI50 is > 100 µM (inactive) with SK-MEL-28; 40.5 µM (inactive) with SR; 74.3 µM (inactive) in the experiment with TK-10; 42.4 µM (inactive) in the experiment with U-251; 37.1 µM (inactive) with UO-31.
Turning to `COc1ccc2[nH]c3c(C)cc([N+](=O)[O-])c(C)c3c2c1`, the GI50 was 21.8 µM (inactive) in the experiment with 786-0; 25 µM (inactive) with A549; 17.9 µM (inactive) with CCRF-CEM; 26.3 µM (inactive) in the experiment on COLO 205; 31 µM (inactive) with EKVX; 25.4 µM (inactive) in the experiment with HCC 2998. Moreover, the GI50 with IGROV-1 was 27.4 µM (inactive); in the experiment with KM12 it was 19.7 µM (inactive); in the experiment on MOLT-4, 20.5 µM (inactive); in the experiment with NCI-H522, 17.1 µM (inactive); with OVCAR-3, 37.8 µM (inactive); in the experiment on OVCAR-4, 33 µM (inactive). For the same compound, the GI50 with RXF 393 was 19 µM (inactive); with SK-MEL-28 it was 24.7 µM (inactive); in the experiment on SR, 17.7 µM (inactive); in the experiment with TK-10, 27.1 µM (inactive); in the experiment with U-251, 22.9 µM (inactive); in the experiment on UO-31, 21.6 µM (inactive).
For the compound `O=C(c1ccc(Cl)cc1Cl)C1[C@H]2C(=O)N(c3ccc(Cc4ccc(N5C(=O)[C@@H]6ON(c7ccccc7)C(C(=O)c7ccc(Cl)cc7Cl)[C@@H]6C5=O)cc4)cc3)C(=O)[C@H]2ON1c1ccccc1` (stereo not given in full), the GI50 in the experiment on 786-0, in the experiment on A549, with CCRF-CEM, in the experiment with COLO 205, in the experiment with HCC 2998 and with IGROV-1 was > 50 µM (inactive) each time. Besides, the GI50 with KM12, in the experiment on MOLT-4, with NCI-H522, in the experiment with OVCAR-3, with OVCAR-4 and in the experiment on RXF 393 was > 50 µM (inactive) in each case. The GI50 in the experiment on SK-MEL-28, in the experiment on SR, in the experiment with TK-10, in the experiment on U-251 and in the experiment with UO-31 was > 50 µM (inactive) throughout.
As to `CC(=O)NC(C=O)C(O[C@H](C)C(=O)NC(C)C(=O)NC(CCC(N)=O)C(=O)OCc1ccccc1)C(O)C(O)COC(=O)CCNc1c2ccccc2nc2cccc([N+](=O)[O-])c12` (stereo not given in full), the GI50 in the experiment on 786-0 is 4.56 µM (inactive); with A549, 2.23 µM (inactive); in the experiment on CCRF-CEM, 1.94 µM (inactive); in the experiment on COLO 205, 1.29 µM (inactive); with EKVX, 5.7 µM (inactive); with HCC 2998 it was 1.54 µM (inactive). The GI50 in the experiment on IGROV-1 was > 100 µM (inactive); in the experiment with KM12 it was 1.91 µM (inactive); in the experiment on MOLT-4 it was 3.57 µM (inactive); in the experiment with NCI-H522 it was 1.62 µM (inactive); in the experiment on OVCAR-3, 1.85 µM (inactive); in the experiment on OVCAR-4 it was 12.2 µM (inactive). Moreover, the GI50 with RXF 393 is 3.96 µM (inactive); with SK-MEL-28 it was 3.19 µM (inactive); with SR, 0.637 µM (active); in the experiment with TK-10 it was 13.6 µM (inactive); with U-251, 2.56 µM (inactive); in the experiment on UO-31, 16.9 µM (inactive).
Take `CC(/C(=N\Nc1ccccc1)c1ccc(O)cc1)C1C(=O)Oc2ccccc21` (stereo not given): the GI50 with 786-0, in the experiment with A549, with CCRF-CEM, in the experiment with COLO 205, with EKVX and in the experiment with HCC 2998 was > 100 µM (inactive) in each case. The GI50 with IGROV-1, with KM12, with MOLT-4, with OVCAR-3, in the experiment on OVCAR-4 and with RXF 393 was > 100 µM (inactive) throughout. Also, the GI50 in the experiment with SR, in the experiment on TK-10, in the experiment on U-251 and in the experiment with UO-31 was > 100 µM (inactive) throughout.
`O=S(=O)(O)SC/C=C\CSS(=O)(=O)O`: the GI50 with 786-0 is > 100 µM (inactive); with A549, 44.4 µM (inactive); in the experiment with COLO 205, > 100 µM (inactive); in the experiment with EKVX, > 100 µM (inactive); in the experiment with HCC 2998, > 100 µM (inactive); in the experiment on IGROV-1 it was > 100 µM (inactive). Also, the GI50 in the experiment with KM12 is 21.4 µM (inactive); with MOLT-4 it was > 100 µM (inactive); in the experiment with NCI-H522, > 100 µM (inactive); in the experiment on OVCAR-3, > 100 µM (inactive); in the experiment on OVCAR-4 it was > 100 µM (inactive); with RXF 393, > 100 µM (inactive). In addition, the GI50 is > 100 µM (inactive) with SK-MEL-28; > 100 µM (inactive) with SR; > 100 µM (inactive) in the experiment on TK-10; 31.5 µM (inactive) in the experiment with U-251; > 100 µM (inactive) with UO-31.
Consider `COc1ccc(CCC2c3cc(OC)c(OC)cc3CCN2C)cc1OC` (stereo not given), for which the GI50 with 786-0, in the experiment on A549, with CCRF-CEM, with COLO 205, in the experiment on EKVX and in the experiment on HCC 2998 was > 100 µM (inactive) each time. Also, the GI50 in the experiment on IGROV-1, with KM12, in the experiment on MOLT-4, with NCI-H522, in the experiment with OVCAR-3 and with OVCAR-4 was > 100 µM (inactive) in each case. For the same compound, the GI50 in the experiment on RXF 393, with SK-MEL-28, with SR, in the experiment with TK-10, with U-251 and with UO-31 was > 100 µM (inactive) each time.
Regarding `CCN(CC)C(=S)S` [DITIOCARB SODIUM], the GI50 in the experiment with 786-0 is 67.9 µM (inactive); in the experiment on CCRF-CEM, 0.0443 µM (active); in the experiment on COLO 205, 0.0713 µM (active); in the experiment with EKVX, > 100 µM (inactive); in the experiment on HCC 2998 it was 33.6 µM (inactive); in the experiment with KM12, 0.646 µM (active). For the same compound, the GI50 with NCI-H522 was 0.103 µM (active); with RXF 393, > 57.4 µM (inactive); with SK-MEL-28, > 47.9 µM (inactive); in the experiment with SR, 0.0354 µM (active); with TK-10 it was > 100 µM (inactive); in the experiment with U-251, 0.299 µM (active). For the same compound, the GI50 with UO-31 was > 100 µM (inactive).
